Reference: patent publication US7038049B2, “Haloanilino quinazolines and therapeutic use thereof” (Parker Hughes Institute, priority 1999, dated 2006)
pIC50: −log10 of the molar value.

Legend:
[1] = Single bolus dose toxicity in mice; assay type: in vivo; details: mouse, in vivo, ip
Procedure: (§1) HI-P131 was not toxic to mice at intraperitoneal single bolus doses ranging from 0.5 mg/kg to 250 mg/kg. […] Thus, the maximum tolerated dose (MlD) of HI-P131 was not reached at 250 mg/kg. We next examined the pharmacokinetic features of HI-P131 in mice. A two-compartment pharmacokinetic model was fit to the pharmacokinetics data obtained following the intravenous (i.v.) or intraperitoneal (i.p.) administration of a single non-toxic 12.5 mg/kg bolus dose of HI-P131.

[2] = test system: mice; test: Single bolus dose toxicity in mice; assay type: in vivo
Procedure: as §1

[3] = test system: U373 human brain tumor cells; test: MTT cytotoxicity assay, U373; assay type: cell-based; details: Homo sapiens, U373 MG, Table 4, OH substituted, 24–36 hours
Procedure: (§2) The cytotoxicity assay of various compounds against human tumor cell lines was performed using the MTT (3-[4,5-dimethylthiazol-2-yl]-2,5-diphenyl tetrazolium bromide) assay (Boehringer Mannheim Corp., Indianapolis, Ind.). Briefly, exponentially growing tumor cells were seeded into a 96-well plate at a density of 2.5×10^4 cells/well and incubated for 36 hours at 37° C. prior to drug exposure. On the day of treatment, culture medium was carefully aspirated from the wells and replaced with fresh medium containing the quinazoline compounds at concentrations ranging from 0.1 to 250 μM. Triplicate wells were used for each treatment.
(§3) Human cell lines were obtained from American Type Culture Collection (Rockville, Md.) and maintained as a continuous cell line in Dulbecco's modified Eagles' medium supplemented with 10% fetal bovine serum and antibiotics. Cells used in this study include human leukemia cells (NALM-6 and MOLT-3), human breast cancer cells ([…]), human prostate cancer cells (PC3), and human brain tumor cells (U373).
(§4) The cells were incubated with the various compounds for 24–36 hours at 37° C. in a humidified 5% CO2 atmosphere. To each well, 10 μl of MTT (0.5 mg/ml final concentration) was added and the plates were incubated at 37° C. for 4 hours to allow MTT to form formazan crystals by reacting with metabolically active cells. The formazan crystals were solubilized overnight at 37° C. in a solution containing 10% SDS in 0.01 M HCl. The absorbance of each well was measured in a microplate reader (Labsystems) at 540 nm and a reference wavelength of 690 nm. To translate the OD 540 values into the number of live cells in each well, the OD 540 values were compared to those on standard OD 540—versus—cell number curves generated for each cell line. The percent survival was calculated using the formula:
(§5) [formula] The IC50 values were calculated by non-linear regression analysis. Detection of Apoptosis

[4] = Pharmacokinetic study in mice; assay type: in vivo; details: mouse, plasma, iv, single 12.5 mg/kg bolus, two-compartment model, read-out: Estimated maximum plasma concentration (Cmax)
Procedure: In pharmacokinetic studies, mice were injected either intravenously (i.v.) via the tail vein or intraperitoneally (i.p.) with a bolus dose of 300 μg/mouse (˜12.5 mg/kg=34 μmols/kg) of HI-P131. Blood samples were obtained from the ocular venous plexus by retroorbital venupuncture prior to and at 3 minutes, 5 minutes, 10 minutes, 15 minutes, 30 minutes, 45 minutes and 1 hour, 2 hours, 4 hours, and 8 hours after administration of HI-P 131. All collected blood samples were heparinized and centrifuged at 7,000 xg for 10 minutes in a microcentrifuge to obtain plasma. The plasma samples were stored at −20° C. until analysis. Aliquots of plasma were used for extraction and HPLC analysis. […] The area under the concentration time curve (AUC) was calculated by the trapezoidal rule between first (0 h) and last sampling time plus C/k, where C is the concentration of last sampling and k is the elimination rate constant. Systemic clearance (CL) was determined by dividing the dose by the AUC. The apparent volume of distribution at steady-state was calculated using the following equation, Vss=Dose·AUMC/(AUC)^2. […]
A highly sensitive quantitative HPLC detection method (Chen et al., 1998, J. Chromatography B (Biomedical sciences), in press) was used to determine the pharmocokinetics of HI-P131. […]

[5] = test system: BT20 human breast cancer cells; test: MTT cytotoxicity assay, BT20; assay type: cell-based; details: Homo sapiens, BT-20, Table 4, OH substituted, 24–36 hours
Procedure: as §2, §3, §4, §5

[6] = test system: NALM-6 human leukemia cells; test: MTT cytotoxicity assay, NALM-6; assay type: cell-based; details: Homo sapiens, NALM-6, Table 4, OH substituted, 24–36 hours
Procedure: as §2, §3, §4, §5

[7] = test system: MOLT-3 human leukemia cells; test: MTT cytotoxicity assay, MOLT-3; assay type: cell-based; details: Homo sapiens, MOLT-3, Table 4, OH substituted, 24–36 hours
Procedure: as §2, §3, §4, §5

For `COc1cc2ncnc(Nc3ccc(O)cc3)c2cc1OC` [HI-P131, 4-(4′-Hydroxylphenyl)-amino-6,7-dimethoxyquinazoline], the MTD at 30 day [1] was > 250 mg/kg, the “Side effects or death of toxicity” value ([2]; 50 mice, 30 day observation period) was “None of the 50 mice treated with HI-P131 experienced side effects or died of toxicity” and the “Histopathologic lesions in organs” value ([2]; mouse, in vivo) was “No histopathologic lesions”. The Toxicity to mice ([2]; mouse, in vivo) was “not toxic”, the pIC50 [3] was < 3.60 and the Cmax [4] was 85.6 µM. For the same compound, the pIC50 [5] was < 3.60, the pIC50 [6] was 4.49 and the pIC50 [7] was 4.41.
